The source of these data is patent US12410155B2, “Salt form and crystal form of tetrahydrocyclohepta indazole compound” (Zhejiang Yangli Pharmaceutical Technology Co., Ltd., priority 2021, dated 2025).

In general, IC50 refers to the midpoint of a concentration-inhibition curve. Read a high IC50 as a need for much substance.

Structures are written as SMILES.

One series has as its system MDA-MB-134VI cells. The experiment in a line: MDA-MB-134VI cell proliferation inhibition assay (CTG). Type of series: cell-based. The following applies: Homo sapiens, 240 h, 10 days. On the procedure:
(5) HCC1428 and MDA-MB-134VI Cell Proliferation Inhibition Assay
The initial concentration of the compound of formula (I) was set at 200 nM, followed by 4-fold serial dilutions to achieve ten concentration gradients.
• 1) MDA-MB-134VI cells were cultured in DMEM complete growth medium containing 20% FBS and 1% PenStrep. • 2) When the cells in a T75 culture flask reached 80-90% cell fusion, they were digested with trypsin and collected. The cell passages used were the eighth generation for the first independent experiment and the sixth generation for the second independent experiment. • 3) The cells were centrifuged at 1000 rpm, resuspended in complete medium, and counted. The cell densities were 3.60×10^6 cells/mL for the first experiment and 1.93×10^6 cells/mL for the second experiment, with viability both exceeding 95%. • 4) Cell suspensions were prepared in complete medium at a density of 4.00×10^4 cells/mL for both experiments. […] 100 μL of CellTiter-Glo® reagent was added to each well. The plates were incubated at room temperature in the dark for 30 minutes. • 8) Luminescence values were read using a BMG plate reader.
The IC50 (half-maximal inhibitory concentration) of the compound was obtained using the following nonlinear fitting formula: […]

The next series deals with T-47D cells. As to the kind of experiment: T-47D cell proliferation inhibition assay (CTG). The following applies: Homo sapiens, T47D, 1 nM estradiol. The series is classed as cell-based. How it is done:
(4) MCF-7, T-47D, and CAMA-1 Cell Proliferation Inhibition Assay
T-47D: RPMI-1640 (without phenol red) containing 10% charcoal-stripped serum (500 mL culture medium containing 450 mL RPMI-1640, 50 mL charcoal-stripped serum).
The inhibitory effect of the test compound of formula (I) on the proliferation of MCF-7, CAMA-1, and T-47D cells was analyzed. For MCF-7 cells, ten concentration gradients ranging from 100 nM to 0.0003815 nM were tested, with three replicates for each concentration. For CAMA-1 cells, nine concentration gradients ranging from 100 nM to 0.001526 nM were tested, also with three replicates for each concentration. For T-47D cells, nine concentration gradients ranging from 2 μM to 0.00512 nM were tested, with three replicates for each concentration. Each experiment was conducted twice independently.
The T-47D cells were treated with starvation medium for three days, followed by trypsin digestion, centrifugation, resuspension, and counting. Cell suspensions were prepared using the corresponding culture medium, and 40 μL of the suspension was added to each well of a 384-well plate. The plate was then incubated at 37° C. in a cell incubator with 5% CO2. The test compound of formula (I) was dissolved in DMSO to an initial concentration of 400 μM and subjected to a 5-fold serial dilution to achieve nine different concentrations. After overnight incubation, the diluted compound was further diluted with the corresponding cell culture medium. The resulting mixture was transferred to the respective wells of the cell plate, starting with a final concentration of 2 μM, followed by a 5-fold serial dilution to achieve nine concentrations. The positive control wells contained 2 μM fulvestrant, and 1 nM estradiol was added to the entire plate. The plate was mixed, centrifuged, and incubated at 37° C. in a cell incubator with 5% CO2 for the specified number of days according to the above table.
After incubation for the specified time, the cell culture plate was removed, and the CTG reagent was added. […] The readings were taken using the Envision multi-label analyzer. […]

For another series, the target named is CYP3A (Homo sapiens, UniProt P08684). The experiment in a line: Inhibition of cytochrome P450 isozymes in human liver microsomes, CYP3A. Type of series: in vitro ADME. How it is done:
(1) Study on the Inhibition of Cytochrome P450 Isozymes
The probe substrate, test compound, human liver microsomes, and cofactors were incubated together. The concentration of the metabolic product of the probe substrate was detected using LC-MS/MS to calculate the IC50 values. In the vehicle control samples, the test compound was replaced with an equal volume of vehicle, and the enzyme activity of the vehicle control samples was set as 100%. […]
Upon reaching the respective reaction times for the incubation systems of the various isoenzymes, 200 μL of termination solution containing the appropriate internal standard was added to the reaction plate to terminate the reaction. […] The metabolites of the probe substrates were then analyzed using LC-MS/MS. […]
The activity of various CYP isoenzymes was reflected by the production rate of metabolites from each probe substrate. […] The residual activity percentage of each isoenzyme was determined by comparing the metabolite production rate of the probe substrate in the presence of different concentrations of the test compound or positive inhibitor to that of the vehicle control samples, then multiplying by 100%. […]
A general note: Liver microsomes are a subcellular fraction often used to study metabolism.

CYP3A, sequence (P08684 2-503): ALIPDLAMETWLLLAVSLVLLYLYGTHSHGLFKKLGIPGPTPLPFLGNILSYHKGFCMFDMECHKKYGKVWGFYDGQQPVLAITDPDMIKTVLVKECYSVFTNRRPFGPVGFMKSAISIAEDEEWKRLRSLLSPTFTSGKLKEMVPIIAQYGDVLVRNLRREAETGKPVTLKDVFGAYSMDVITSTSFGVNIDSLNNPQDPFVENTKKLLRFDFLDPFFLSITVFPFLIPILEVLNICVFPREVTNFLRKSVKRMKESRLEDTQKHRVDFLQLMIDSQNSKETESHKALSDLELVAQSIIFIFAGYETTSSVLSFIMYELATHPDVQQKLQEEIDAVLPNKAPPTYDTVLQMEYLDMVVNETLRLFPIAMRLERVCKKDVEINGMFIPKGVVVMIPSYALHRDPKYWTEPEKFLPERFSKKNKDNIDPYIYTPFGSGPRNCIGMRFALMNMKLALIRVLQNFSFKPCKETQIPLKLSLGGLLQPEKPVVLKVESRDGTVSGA

Consider `FCCCN1CC[C@H](Nc2cnc(C3=C(CC(F)(F)F)CCCc4c3ccc3[nH]nc(F)c43)cn2)C1` [Compound of formula (I)], for which the IC50 stood at 0.12 nM in the series with MDA-MB-134VI cells (First experiment); 0.31 ± 0.26 nM in the series with MDA-MB-134VI cells (Mean ± SD); 0.49 nM with MDA-MB-134VI cells (Second experiment); 1.98 nM in the series on T-47D cells (First experiment); 2.35 ± 0.37 nM with T-47D cells (Mean ± SD); 2.71 nM with T-47D cells (Second experiment). The same molecule yielded an IC50 at 3 min at CYP3A (probe midazolam, midazolam as the substrate) of 8380 nM. This molecule registered an IC50 at 10 min at CYP3A (probe testosterone, testosterone as the substrate) of 10900 nM.
